Data on one compound can be found in patent US7223796B2, “Acyl-4-carboxyphenylurea derivatives, processes for preparing them and their use” (Sanofi-aventis Deutschland GmbH, priority 2002, dated 2007).

Series [1] addresses T1, Human glycogen phosphorylase a (Homo sapiens, UniProt P06737).
T1 sequence (P06737 2-847 limits assumed): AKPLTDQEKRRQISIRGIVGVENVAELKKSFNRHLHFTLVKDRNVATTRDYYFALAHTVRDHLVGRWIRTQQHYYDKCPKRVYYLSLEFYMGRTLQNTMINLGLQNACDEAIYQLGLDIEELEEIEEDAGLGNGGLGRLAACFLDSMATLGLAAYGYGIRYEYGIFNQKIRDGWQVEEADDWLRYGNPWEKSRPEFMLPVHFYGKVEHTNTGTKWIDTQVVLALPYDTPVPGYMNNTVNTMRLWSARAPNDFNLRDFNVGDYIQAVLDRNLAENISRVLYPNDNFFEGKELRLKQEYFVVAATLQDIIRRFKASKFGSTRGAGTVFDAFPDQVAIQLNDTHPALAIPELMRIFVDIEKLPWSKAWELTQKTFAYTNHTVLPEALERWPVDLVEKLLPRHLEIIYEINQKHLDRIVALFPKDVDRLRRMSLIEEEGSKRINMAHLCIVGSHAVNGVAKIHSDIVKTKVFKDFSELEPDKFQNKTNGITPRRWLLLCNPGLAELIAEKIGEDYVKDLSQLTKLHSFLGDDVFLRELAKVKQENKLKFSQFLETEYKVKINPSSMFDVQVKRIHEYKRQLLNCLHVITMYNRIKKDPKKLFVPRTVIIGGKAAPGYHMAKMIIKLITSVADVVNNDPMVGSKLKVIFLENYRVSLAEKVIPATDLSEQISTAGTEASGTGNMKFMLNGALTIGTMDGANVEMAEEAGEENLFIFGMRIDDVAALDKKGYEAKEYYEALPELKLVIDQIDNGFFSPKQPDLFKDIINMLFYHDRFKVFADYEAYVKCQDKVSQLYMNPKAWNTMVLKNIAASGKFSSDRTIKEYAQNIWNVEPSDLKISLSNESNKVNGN
The series can be described thus: Glycogen phosphorylase a activity test. The settings on record: read-out: % inhibition at 10 μM; 10 μM test substance; GPa measured in reverse direction (glycogen synthesis from glucose 1-phosphate, phosphate release). It is filed as biochemical.
Protocol: Glycogen Phosphorylase a Activity Test
All the reactions were carried out as duplicate determinations in 96-well microtiter plates (Half Area Plates, Costar No. 3696), with the change in absorption due to the formation of the reaction product being measured, at the wavelength specified below, in a Multiscan Ascent Elisa Reader (Lab Systems, Finland). In order to measure the enzymic activity of GPa in the reverse direction, the conversion of glucose 1-phosphate into glycogen and inorganic phosphate was measured in accordance with the general method of Engers et al. (Engers H D, Shechosky S, Madsen N B, Can J Biochem 1970 July;48(7): 746–754) but with the following modifications: Human glycogen phosphorylase a (for example containing 0.76 mg of protein/ml (Aventis Pharma Deutschland GmbH), dissolved in buffer solution E (25 mM β-glycerophosphate, pH 7.0, 1 mM EDTA and 1 mM dithiothreitol), was diluted with buffer T (50 mM Hepes, pH 7.0, 100 mM KCl, 2.5 mM EDTA, 2.5 mM MgCl2.6H2O), and addition of 5 mg of glycogen/ml, to a concentration of 10 μg of protein/ml. […] The basal value of the activity of the glycogen phosphorylase a in the absence of test substance was determined by adding 10 μl of buffer solution T (0.1% DMSO). […] After 60 minutes of incubation at 45° C., the absorption was measured at 820 nm. […]

`O=C(NC(=O)c1cc(F)c(F)cc1Cl)Nc1ccc(C(=O)O)cc1OC(F)(F)F` [Example 48, 4-[3-(2-Chloro-4,5-difluorobenzoyl)ureido]-3-trifluoromethoxybenzoic acid] showed a melting point of 236 °C. Besides, the inhibition at 10 µM in series [1] worked out at 99%.

One may read the inhibition as the percentage by which the read-out fell short of the control. In general, melting point refers to the temperature, or range, at which the solid turns liquid.
